{"source": "patent US20100113612A1", "about": "“NOVEL USE OF HYDROXYTYROSOL AND OLIVE EXTRACTS/CONCENTRATE CONTAINING IT” (priority 2007, published 2010)", "test_system": "Drosophila melanogaster (Oregon wild strain)", "assay": "Life extending experiments with Drosophila (lifespan study)", "assay_type": "in vivo", "details": "for Mean Lifespan: from age of 15 days on", "experimental": "Drosophila melanogaster (Oregon wild strain) were used for lifespan study. Flies were reared in a light/dark cycle of 12:12 hours at a temperature of 25° C. and 65% relative humidity. Drosophila were fed with a standard medium consisting of 170 g of corn flour, 15 g of agar, 15 g of yeast, 10 ml of 100% propionic acid, 130 g of sucrose, and 2000 ml of water.\nOne-day-old Drosophila were transferred to plastic vials (25×100 mm) containing 2 ml of the diet medium, which was replaced every 3 days. 10 flies from each gender were kept in one vial. Hydroxytyrosol was provided in the diet to Drosophila from age of 15 days on. The Drosophilae were counted every 3 days until all flies died. Survivals were calculated at the end of the experiments after correcting total loss incurred from handling (Phillips J P, Campbell S D, Michaud D, Charbonneau M, Hilliker A J, Proc Natl Acad Sci USA. 1989, 86(8), 2761-2765: “Null mutation of copper/zinc superoxide dismutase in Drosophila confers hypersensitivity to paraquat and reduced longevity.”). The mean lifespan was calculated according to the method described by Cui X, Dai X G, Li W B, Zhang B L, Fang Y Z in Am. J. Chin. Med. 1999, 27(3-4), 407-413: “Effects of lu-duo-wei capsule on prolonging life span of housefly and Drosophila melanogaster.”", "data": [{"molecule": "OCCc1ccc(O)c(O)c1", "note": "[Hydroxytyrosol, 3,4-dihydroxyphenylethanol]", "values": [{"measurement": "% Increase of lifespan compared to control", "setting": "1 mg/100 g in the diet", "result": 8.23, "unit": "%"}, {"measurement": "Mean Lifespan", "setting": "1 mg/100 g in the diet", "result": 75.14, "unit": "days"}, {"measurement": "% Increase of lifespan compared to control", "setting": "5 mg/100 g in the diet", "result": 11.55, "unit": "%"}, {"measurement": "Mean Lifespan", "setting": "5 mg/100 g in the diet", "result": 77.44, "unit": "days"}, {"measurement": "% Increase of lifespan compared to control", "setting": "10 mg/100 g in the diet", "result": 3.89, "unit": "%"}, {"measurement": "Mean Lifespan", "setting": "10 mg/100 g in the diet", "result": 72.12, "unit": "days"}, {"measurement": "% Increase of lifespan compared to control", "setting": "20 mg/100 g in the diet", "result": 6.97, "unit": "%"}, {"measurement": "Mean Lifespan", "setting": "20 mg/100 g in the diet", "result": 74.26, "unit": "days"}, {"measurement": "% Increase of lifespan compared to control", "setting": "50 mg/100 g in the diet", "result": 4.02, "unit": "%"}, {"measurement": "Mean Lifespan", "setting": "50 mg/100 g in the diet", "result": 72.21, "unit": "days"}, {"measurement": "lifespan extension (best effect)", "setting": "male Drosophila, 5 mg/100 g diet", "result": 11.5, "unit": "%"}]}]}
